From patent publication US7528164B2, “Substituted 4-aryl-4h-pyrrolo[2,3-h]chromenes and analogs as activators of caspases and inducers of apoptosis and the use thereof” (Cytovia, Inc., priority 2002, dated 2009)
Read-outs that look alike come from different tables or passages of the source.

Experiments:
ZR-75-1 = experiment: Caspase cascade activation assay in ZR-75-1 cells (N-(Ac-DEVD)-N'-ethoxycarbonyl-R110 fluorogenic substrate); format: cell-based; details: ZR-75-1 human breast cancer cells, 24 h incubation; for Caspase activity (Ratio): ratio of net RFU of test compound to control; for EC50: sigmoidal dose-response, read-out: Caspase potency EC50
Protocol: (§1) Human breast cancer cell lines T-47D and ZR-75-1 were grown according to media component mixtures designated by American Type Culture Collection+10% FCS (Invitrogen Corporation), in a 5% CO2-95% humidity incubator at 37° C. T-47D and ZR-75-1 cells were maintained at a cell density between 30 and 80% confluency at a cell density of 0.1 to 0.6×10^6 cells/mL. Cells were harvested at 600×g and resuspended at 0.65×10^6 cells/mL into appropriate media+10% FCS. An aliquot of 45 μl of cells was added to a well of a 96-well microtiter plate containing 5 μl of a 10% DMSO in RPMI-1640 media solution containing about […] of 2-amino-3-cyano-4-(5-methyl-pyridin-3-yl)-7-methyl-4H-pyrrolo[2,3-h]chromene (Example 10) or other test compound (0.016 to 1 μM final). An aliquot of 45 μl of cells was added to a well of a 96-well microtiter plate containing 5 μl of a 10% DMSO in RPMI-1640 media solution without test compound as the control sample. The samples were mixed by agitation and then incubated at 37° C. for 24 h in a 5% CO2-95% humidity incubator. After incubation, the samples were removed from the incubator and 50 μl of a solution containing 20 μM of N-(Ac-DEVD)-N′-ethoxycarbonyl-R110 (SEQ ID No:1) fluorogenic substrate (Cytovia, Inc.; U.S. Pat. No. 6,335,429), 20% sucrose (Sigma), 20 mM DTT (Sigma), 200 mM NaCl (Sigma), 40 mM Na PIPES buffer pH 7.2 (Sigma), and 500 μg/ml lysolecithin (Calbiochem) was added. The samples were mixed by agitation and incubated at room temperature. Using a fluorescent plate reader (Model 1420 Wallac Instruments), an initial reading (T=0) was made approximately 1-2 min after addition of the substrate solution, employing excitation at 485 nm and emission at 530 nm, to determine the background fluorescence of the control sample. After the 3 h incubation, the samples were read for fluorescence as above (T=3 h).
(§2) The Relative Fluorescence Unit values (RFU) were used to calculate the sample readings as follows: RFU(T=3h)−Control RFU(T=0)=Net RFU(T=3h) The activity of caspase cascade activation was determined by the ratio of the net RFU value for 2-amino-3-cyano-4-(5-methyl-pyridin-3-yl)-7-methyl-4H-pyrrolo[2,3-h]chromene or other test compound to that of control samples. The EC50 (nM) was determined by a sigmoidal dose-response calculation (Prism 2.0, GraphPad Software Inc.).

T-47D = experiment: Caspase cascade activation assay in T-47D cells (N-(Ac-DEVD)-N'-ethoxycarbonyl-R110 fluorogenic substrate); format: cell-based; details: T-47D human breast cancer cells, 24 h incubation; for EC50: sigmoidal dose-response, read-out: Caspase potency EC50; for Caspase activity (Ratio): ratio of net RFU of test compound to control
Protocol: as §1, §2

Row | Compound | EC50 (ZR-75-1) | EC50 (T-47D; T47D) | EC50 (T-47D) | Caspase activity (Ratio) (ZR-75-1) | Caspase activity (Ratio) (T-47D)
1 | Cn1ccc2c3c(ccc21)C(c1c[nH]c2ccccc12)C(C#N)=C(N)O3 (centres unmarked) [Example 8, 2-Amino-3-cyano-4-(indol-3-yl)-7-methyl-4H-pyrrolo[2,3-h]chromene] | 55 nM | 58.7 nM |  | 8.9 | 3.8
2 | Cn1ccc2c3c(ccc21)C(c1cncc(Cl)c1)C(C#N)=C(N)O3 (centres unmarked) [Example 7, 2-Amino-4-(5-chloro-pyridin-3-yl)-3-cyano-7-methyl-4H-pyrrolo[2,3-h]chromene] | 2.7 nM | 6.7 nM |  | 13.1 | 5.1
3 | CCn1ccc2c3c(ccc21)C(c1cc(Br)c(OC)c(OC)c1)C(C#N)=C(N)O3 (centres unmarked) [Example 4, 2-Amino-4-(3-bromo-4,5-dimethoxyphenyl)-3-cyano-7-ethyl-4H-pyrrolo[2,3-h]chromene] | 13.1 nM | 14 nM |  | 9.2 | 6.6
4 | COc1cc(OC)cc(C2C(C#N)=C(N)Oc3c2ccc2c3ccn2CO)c1 (centres unmarked) [Example 34, 2-Amino-3-cyano-4-(3,5-dimethoxyphenyl)-7-hydroxymethyl-4H-pyrrolo [2,3-h]chromene] | 6.5 nM | 7.1 nM |  | 3.9 | 3.3
5 | 2-Amino-4-(3-bromo-4,5-dimethoxyphenyl)-3-cyano-7-methyl-4H-imidazo[4,5-h]chromene [Example 12] | 1.5 nM |  | 1.6 nM | 8.5 | 5.4
6 | Cn1ccc2c3c(ccc21)C(c1ccc([N+](=O)[O-])s1)C(C#N)=C(N)O3 (centres unmarked) [Example 37, 2-Amino-4-(5-nitro-thiophene-2-yl)-3-cyano-7-methyl-4H-pyrrolo[2,3-h]chromene] | 36 nM | > 100 nM |  | 6.7 | 2.0
7 | COc1cc(C2C(C#N)=C(N)Oc3c2ccc2c3ccn2C)cc(Br)c1OC (centres unmarked) [Example 16, 2-Amino-4-(3-bromo-4,5-dimethoxyphenyl)-3-cyano-7-methyl-4H-pyrrolo[2,3-h]chromene] | 1 nM | 1.6 nM |  | 11.7 | 8.1
8 | Cn1ccc2c3c(ccc21)C(c1cccc(Cl)c1)C(C#N)=C(N)O3 (centres unmarked) [Example 40C, 2-Amino-3-cyano-4-(3-chlorophenyl)-7-methyl-4H-pyrrolo[2,3-h]chromene] | 7.9 nM | 14 nM |  | 2.7 | 4.0
9 | Cn1ccc2c3c(ccc21)C(c1cccc(C#N)c1)C(C#N)=C(N)O3 (centres unmarked) [Example 32, 2-Amino-3-cyano-4-(3-cyanophenyl)-7-methyl-4H-pyrrolo[2,3-h]chromene] | 2.9 nM | 6.9 nM |  | 3.6 | 5.3

Further lines, with some results ahead:

Row | EC50 (ZR-75-1) | EC50 (T-47D; T47D) | EC50 (T-47D) | Compound | Caspase activity (Ratio) (ZR-75-1) | Caspase activity (Ratio) (T-47D)
10 | 3.7 nM | 4.9 nM |  | COc1cc(C2C(C#N)=C(N)Oc3c2ccc2c3ccn2C)cc(I)c1OC (centres unmarked) [Example 31, 2-Amino-3-cyano-4-(4,5-dimethoxy-3-iodophenyl)-7-methyl-4H-pyrrolo[2,3-h]chromene] | 4.3 | 6.3
11 | 28.6 nM | 55.3 nM |  | COc1cc(C2C(C#N)=C(N)Oc3c2ccc2c3ccn2CC2CC2)cc(Br)c1OC (centres unmarked) [Example 5, 2-Amino-4-(3-bromo-4,5-dimethoxyphenyl)-3-cyano-7-cyclopropylmethyl-4H-pyrrolo[2,3-h]chromene] | 3.0 | 4.0
12 | 5.7 nM | 12 nM |  | Cn1ccc2c3c(ccc21)C(c1cccc(Br)c1)C(C#N)=C(N)O3 (centres unmarked) [Example 29, 2-Amino-3-cyano-4-(3-bromophenyl)-7-methyl-4H-pyrrolo[2,3-h]chromene] | 6.3 | 3.3
13 | 107 nM | 231 nM |  | COc1cc(C2C(C#N)=C(N)Oc3c2ccc2c3ccn2CC2CO2)cc(Br)c1OC (centres unmarked) [Example 19, 2-Amino-4-(3-bromo-4,5-dimethoxyphenyl)-3-cyano-7-oxiranylmethyl-4H-pyrrolo[2,3-h]chromene] | 11.7 | 10.2
14 | 7.2 nM | 14 nM |  | Cn1ccc2c3c(ccc21)C(c1cccc(F)c1)C(C#N)=C(N)O3 (centres unmarked) [Example 40A, 2-Amino-3-cyano-4-(3-fluorophenyl)-7-methyl-4H-pyrrolo[2,3-h]chromene] | 4.1 | 5.1
